# In patent US20140303105A1, “Primycin and components thereof for use in the treatment or prevention of infections caused by specific pathogens” (PANNONPHARMA GYÓGYSZERGYÁRTÓ ZRT., priority 2011, published 2014):
# Key:
# [1] = tested on: Staphylococcus aureus, methicillin susceptible; assay: Standard microdilution susceptibility test, clinical isolates; assay type: cell-based; conditions: 10 clinical isolates
# [2] = tested on: Staphylococcus aureus, methicillin resistant; assay: as above; assay type: cell-based; conditions: 10 clinical isolates
# [3] = tested on: Coagulase-negative Staphylococus sp., methicillin resistant; assay: as above; assay type: cell-based; conditions: 10 clinical isolates
# [4] = tested on: Enterococcus sp., decreased vancomycin susceptibility; assay: as above; assay type: cell-based; conditions: 5 clinical isolates
# E. casseliflavus = assay: Microdilution MIC, Enterococcus isolates with van resistance genes; assay type: cell-based
# Method: (§1) Identification and characterization of resistance patterns of these bacteria were performed by standard methods.
# (§2) When forming the test groups we attached great importance to the increasing incidence of drug-resistant microbes causing therapeutic problems. Most important of them are methicillin-resistant Staphylococcus aureus (MRSA), methicillin-resistant coagulase-negative Staphylococcus spp. (MRCoNS), penicillin-resistant Streptococcus pneumoniae (pneumococcus), vancomycin-resistant Enterococcus spp. (VRE). Pneumococcus isolates represented various serotypes, VRE isolates belonged to various species. Moreover, vancomycin-resistance of VRE isolates was based on different genetic backgrounds. Antibiotic-resistant strains were also represented among international reference strains, for example methicillin-resistant Staphylococcus aureus ATCC 43300 (MRSA), Staphylococcus aureus with decreased vancomycin susceptibility ATCC 700698 and 700699 (vancomycin intermediate Staphylococcus aureus—VISA), mupirocin-resistant Staphylococcus aureus ATCC BAA1708 and vancomycin-resistant Enterococcus faecalis ATCC 51299 (VRE).
# (§3) Susceptibility tests were performed according to the standard microdilution method (NCCLS (CLSI) M7-A7).
# (§4) The lowest concentration at which no bacterial growth was observed after the incubation period is the Minimal Inhibitory Concentration (MIC). The MIC value is inversely proportional to the antimicrobial efficacy. MIC values of antimicrobial agents can differ by species or even by bacterial strains within species.
# E. faecalis = assay: as above; assay type: cell-based
# Method: as §1, §2, §3, §4
# E. faecium = assay: as above; assay type: cell-based; conditions: resistance gene van B
# Method: as §1, §2, §3, §4
# [5] = tested on: Bacillus subtilis ATCC 6633; assay: Microdilution MIC, ATCC reference strains; assay type: cell-based
# Method: as §1, §2, §3, §4
# [6] = tested on: Enterococcus faecalis ATCC 29212; assay: Microdilution MIC, ATCC reference strains; assay type: cell-based
# Method: as §1, §2, §3, §4
# [7] = tested on: Enterococcus faecalis ATCC 51299 (VRE); assay: Microdilution MIC, ATCC reference strains; assay type: cell-based
# Method: as §1, §2, §3, §4
# [8] = tested on: Enterococcus hirae ATCC 8043; assay: Microdilution MIC, ATCC reference strains; assay type: cell-based
# Method: as §1, §2, §3, §4
# [9] = tested on: Escherichia coli ATCC 25922; assay: Microdilution MIC, ATCC reference strains; assay type: cell-based
# Method: as §1, §2, §3, §4
# [10] = tested on: Staphylococcus aureus ATCC 25923; assay: Microdilution MIC, ATCC reference strains; assay type: cell-based
# Method: as §1, §2, §3, §4
# [11] = tested on: Staphylococcus aureus ATCC 29213; assay: Microdilution MIC, ATCC reference strains; assay type: cell-based
# Method: as §1, §2, §3, §4
# [12] = tested on: Staphylococcus aureus ATCC 43300 (MRSA); assay: Microdilution MIC, ATCC reference strains; assay type: cell-based
# Method: as §1, §2, §3, §4
# [13] = tested on: Staphylococcus aureus ATCC 700698 (VISA); assay: Microdilution MIC, ATCC reference strains; assay type: cell-based
# Method: as §1, §2, §3, §4
# [14] = tested on: Staphylococcus aureus ATCC 700699 (VISA); assay: Microdilution MIC, ATCC reference strains; assay type: cell-based
# Method: as §1, §2, §3, §4
# [15] = tested on: Staphylococcus aureus ATCC BAA1708 (mupirocin-resistant); assay: Microdilution MIC, ATCC reference strains; assay type: cell-based
# Method: as §1, §2, §3, §4
# Streptococcus ATCC 49619 = assay: Microdilution MIC, ATCC reference strains; assay type: cell-based
# Method: as §1, §2, §3, §4
# [16] = tested on: Staphylococcus epidermidis 7586; conditions: cited from earlier work
# [17] = tested on: Staphylococcus aureus 7503; conditions: cited from earlier work
# Streptococcus mitis 5728 = conditions: cited from earlier work
# Micrococcus spp. = conditions: cited from earlier work
# [18] = tested on: Staphylococcus aureus ATCC 25923; conditions: cited from earlier work
# [19] = tested on: Enterobacter cloacae B 520; conditions: cited from earlier work
# [20] = tested on: Bacillus subtilis ATCC 6633; conditions: cited from earlier work
# S. aureus = conditions: by Bryskier; cited from earlier work
# S. aureus ATCC 25923 = conditions: by Bryskier; cited from earlier work
# S. pyogenes = conditions: by Bryskier; cited from earlier work
# B. subtilis ATCC 6633 = conditions: by Bryskier; cited from earlier work
# Enterobacter cloacae = conditions: by Bryskier; cited from earlier work
# Gram-negative species = conditions: crystalline primycin and amorphous predecessor; Uri and Actor 1979; cited from earlier work
# [21] = tested on: erythromycin-resistant staphylococci; conditions: 71 strains; cited from earlier work
# [22] = tested on: S. aureus and coagulase-negative staphylococci; conditions: Bryskier 2005; cited from earlier work
# [23] = tested on: Bacillus spp. and Micrococcus spp.; conditions: Bryskier 2005; cited from earlier work
substance,measurement,setting,value
Primycin,MIC 50%,[1],0.06 mg/L
same,MIC 90%,[1],0.06 mg/L
same,MIC Range,[1],0.06-0.06 mg/L
same,Ratio of Sensitive/Total,[1],10/10
same,MIC 50%,[2],0.06 mg/L
same,MIC 90%,[2],0.06 mg/L
same,MIC Range,[2],0.06-0.06 mg/L
same,Ratio of Sensitive/Total,[2],10/10
same,MIC 50%,[3],0.06 mg/L
same,MIC 90%,[3],0.06 mg/L
same,MIC Range,[3],0.03 to 0.06 mg/L
same,Ratio of Sensitive/Total,[3],10/10
same,MIC Range,[4],0.25 to 0.5 mg/L
same,Ratio of Sensitive/Total,[4],5/5
same,MIC,E. casseliflavus; resistance gene van C1,0.5 mg/L
same,MIC,E. casseliflavus; resistance gene van C2,0.5 mg/L
same,MIC,E. faecalis; resistance gene van A,0.5 mg/L
same,MIC,E. faecalis; resistance gene van C1,0.5 mg/L
same,MIC,E. faecium,0.25 mg/L
same,Primycin MIC,[5],0.03 mg/L
same,Primycin MIC,[6],0.5 mg/L
same,Primycin MIC,[7],1 mg/L
same,Primycin MIC,[8],0.5 mg/L
same,Primycin MIC,[9],>64 mg/L
same,Primycin MIC,[10],0.06 mg/L
same,Primycin MIC,[11],0.06 mg/L
same,Primycin MIC,[12],0.06 mg/L
same,Primycin MIC,[13],0.06 mg/L
same,Primycin MIC,[14],0.125 mg/L
same,Primycin MIC,[15],0.06 mg/L
same,Primycin MIC,Streptococcus ATCC 49619,0.5 mg/L
same,MIC,[16],0.78 mg/L
same,MIC,[17],0.39 mg/L
same,MIC,Streptococcus mitis 5728,50.0 mg/L
same,MIC,Micrococcus spp.,0.78 mg/L
same,MIC,[18],25.0 mg/L
same,MIC,[19],50.0 mg/L
same,MIC,[20],0.39 mg/L
same,MIC,S. aureus,0.39 mg/L
same,MIC,S. aureus ATCC 25923,25 mg/L
same,MIC,S. pyogenes,1.56 mg/L
same,MIC,B. subtilis ATCC 6633,0.39 mg/L
same,MIC,Enterobacter cloacae,50 mg/L
same,efficacy against Gram-negative species,Gram-negative species,ineffective
same,share of strains presenting primycin resistance,[21],13%
same,efficacy,[22],effective
same,efficacy,[23],effective
